Like-named read-outs stand apart in the source and are kept apart here. Starred links: 1 amine or outer side, 2 acyl side, 3 side chain; linkers in the order of their positions; H or OH if unused. Non-standard residues stand in square brackets, D forms with d. Residues, ends and D or L forms follow the SMILES beside them. Groups on a side chain read outwards from the residue. *: point of attachment. C18 diacid = O=C(O)CCCCCCCCCCCCCCCCC(=O)*; γGlu = O=C(O)[C@H](CCC(=O)[*:2])N[*:1]; εLys = N[C@@H](CCCCN[*:1])C(=O)[*:2]; Aib = CC(C)(N)C(=O)O
Assays:
[1] = molecular target: T1, human GLP-1 receptor (Homo sapiens, UniProt P43220); test: In vitro functional potency, CRE luciferase reporter gene assay, whole BHK cells expressing hGLP-1R; type: cell-based; settings: BHK CRE luc2P hGLP-1R cells
T1 construct: expressed in transfected cells; host or cells: BHK (parent line BHKTS13), clone BHK CRE luc2P hGLP-1R

[2] = Pharmacokinetic study in dogs, oral dosing of tablet compositions with SNAC; type: in vivo, Beagle dogs; settings: male, beagle, dog, in vivo, po
Procedure, shortened: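 The tablets held 3-4 mg compound plus 100-300 mg SNAC and were given to fasted male beagles (6-8 per group); non-compartmental PK per animal.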

T1 sequence (P43220 24-463): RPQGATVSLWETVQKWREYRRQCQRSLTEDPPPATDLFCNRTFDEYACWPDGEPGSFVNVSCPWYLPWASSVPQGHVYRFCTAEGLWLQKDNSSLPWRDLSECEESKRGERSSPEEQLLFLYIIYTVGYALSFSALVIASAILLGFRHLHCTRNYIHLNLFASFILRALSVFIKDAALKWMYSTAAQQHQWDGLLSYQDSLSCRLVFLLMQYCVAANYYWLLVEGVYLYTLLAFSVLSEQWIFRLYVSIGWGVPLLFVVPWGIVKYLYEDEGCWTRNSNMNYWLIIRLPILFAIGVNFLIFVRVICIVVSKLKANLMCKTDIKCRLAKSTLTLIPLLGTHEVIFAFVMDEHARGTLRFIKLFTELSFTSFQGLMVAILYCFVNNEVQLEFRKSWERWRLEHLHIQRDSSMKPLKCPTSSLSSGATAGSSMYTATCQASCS

CC[C@H](C)[C@H](NC(=O)[C@H](Cc1ccccc1)NC(=O)[C@H](CCC(=O)O)NC(=O)[C@H](CCCNC(=N)N)NC(=O)[C@H](C)NC(=O)[C@H](C)NC(=O)[C@H](CCC(N)=O)NC(=O)[C@H](CCCCNC(=O)[C@@H](N)CCCCNC(=O)[C@@H](N)CCCCNC(=O)CC[C@H](NC(=O)CCCCCCCCCCCCCCCCC(=O)O)C(=O)O)NC(=O)[C@H](CCC(=O)O)NC(=O)[C@H](CC(C)C)NC(=O)[C@H](CC(C)C)NC(=O)[C@@H](NC(=O)[C@H](CO)NC(=O)[C@H](Cc1ccc(O)cc1)NC(=O)[C@H](CC(=O)O)NC(=O)[C@H](CO)NC(=O)[C@@H](NC(=O)[C@H](Cc1ccccc1)NC(=O)[C@@H](NC(=O)CNC(=O)[C@H](CCC(=O)O)NC(=O)C(C)(C)NC(=O)[C@@H](N)Cc1ccc(O)cc1)[C@@H](C)O)[C@@H](C)O)[C@@H](C)CC)C(=O)N[C@@H](CC(N)=O)C(=O)N[C@@H](Cc1c[nH]c2ccccc12)C(=O)N[C@@H](CC(C)C)C(=O)N[C@@H](CC(C)C)C(=O)N[C@@H](C)C(=O)NCC(=O)NCC(=O)N1CCC[C@H]1C(=O)N[C@@H](CO)C(=O)N[C@@H](CO)C(=O)NCC(=O)N[C@@H](C)C(=O)N1CCC[C@H]1C(=O)N1CCC[C@H]1C(=O)N1CCC[C@H]1C(=O)N[C@@H](CO)C(=O)O [Compound No. 15] (H-Y[Aib]EGTFTSDYSILLEK([εLys-εLys-γGlu-C18 diacid])QAAREFINWLLAGGPSSGAPPPS-OH)
EC50 ([1]; 0% HSA, read-out: hGLP-1R, CRE Luc 0% HSA EC50): 5 pM | EC50 ([1]; hGLP-1R, CRE Luc 1% HSA EC50, 1% HSA): 130 pM | Tmax ([2]; Tmax): 1.5 h | half-life ([2]; t1/2): 59 h

— patent US20230120597A1, “CO-AGONISTS AT GLP-1 AND GIP RECEPTORS SUITABLE FOR ORAL DELIVERY” (Novo Nordisk A/S, priority 2020, published 2023)
